{"source": "patent US9926306B2", "about": "“Inhibition of MCL-1 and/or BFL-1/A1” (Dana-Farber Cancer Institute, Inc., priority 2012, dated 2018)", "key": {"[1]": {"tested_on": "parental p185+Arf−/− CML cells", "experiment": "Cell viability and CalcuSyn synergy, parental leukemia cells", "type": "cell-based, murine", "conditions": "Mus musculus; parental cells expressing both MCL-1 and BCL-XL; read-out: IC50, cytotoxicity", "method": "(§1) p185^+Arf^−/− and MCL-1 or BCL-XL-rescued p185^+Arf^−/−Mcl^−/− cells were maintained in RPMI 1640 (ATCC) supplemented with 10% (v/v) FBS, 100 U/mL penicillin, 100 μg/mL streptomycin, 0.1 mM MEM non-essential amino acids and 50 μM β-mercaptoethanol. Mouse embryonic fibroblasts (MEFs) cells were maintained in DMEM high glucose (Invitrogen) supplemented with 10% (v/v) FBS, 100 U/mL penicillin, 100 μg/mL streptomycin, 2 mM L-glutamine, 50 mM HEPES, 0.1 mM MEM non-essential amino acids and 50 μM β-mercaptoethanol. […] Cell viability was assayed at 24 h by addition of CellTiter-Glo reagent according to the manufacturer's protocol (Promega), and luminescence was measured using a SpectraMax M5 microplate reader (Molecular Devices). Caspase 3/7 activation was assayed at 8 h by addition of Caspase-Glo 3/7 reagent according to manufacturer's protocol (Promega), and luminescence measured using a SpectraMax M5 microplate reader. Viability and caspase assays were performed in duplicate, repeated at least twice with independent cell cultures, and the data normalized to vehicle-treated control wells."}, "[2]": {"tested_on": "BCL-XL-rescued p185+Arf−/−Mcl-1−/− CML cells", "experiment": "Cell viability (CellTiter-Glo), BCL-XL-dependent leukemia cells", "type": "cell-based, murine", "conditions": "Mus musculus, 24 h", "protocol": "Cell viability was assayed at 24 h by addition of CellTiter-Glo reagent according to the manufacturer's protocol (Promega), and luminescence was measured using a SpectraMax M5 microplate reader (Molecular Devices). […] Viability and caspase assays were performed in duplicate, repeated at least twice with independent cell cultures, and the data normalized to vehicle-treated control wells."}, "[3]": {"tested_on": "MCL-1-rescued p185+Arf−/−Mcl-1−/− CML cells", "experiment": "Cell viability (CellTiter-Glo), MCL-1-dependent leukemia cells", "type": "cell-based, murine", "conditions": "MCL-1-dependent cells", "excerpt": "A challenges in developing and applying molecular antagonists for BCL-2 family anti-apoptotic proteins is the variable expression of multiple homologues. That is, a cancer cell will only be susceptible to a selective anti-apoptotic inhibitor if the cell is especially dependent on that particular survival protein. […] To test MIM1's activity and specificity in cancer cells, we employed murine p185^+Arf^−/−Mcl-1^−/− chronic myelogenous leukemia (CML) cells that are unable to survive unless reconstituted with MCL-1, reflecting a stringent system for assessing MCL-1 dependence.\np185^+Arf^−/− and MCL-1 or BCL-XL-rescued p185^+Arf^−/−Mcl^−/− cells were maintained in RPMI 1640 (ATCC) supplemented with 10% (v/v) FBS, 100 U/mL penicillin, 100 μg/mL streptomycin, 0.1 mM MEM non-essential amino acids and 50 μM β-mercaptoethanol. […] Cell viability was assayed at 24 h by addition of CellTiter-Glo reagent according to the manufacturer's protocol (Promega), and luminescence was measured using a SpectraMax M5 microplate reader (Molecular Devices). Caspase 3/7 activation was assayed at 8 h by addition of Caspase-Glo 3/7 reagent according to manufacturer's protocol (Promega), and luminescence measured using a SpectraMax M5 microplate reader. […]"}, "[4]": {"target": "T1, MCL-1ΔNΔC (Homo sapiens (Human), UniProt Q07820)", "T1 sequence (Q07820 172-327, stated change not applied)": "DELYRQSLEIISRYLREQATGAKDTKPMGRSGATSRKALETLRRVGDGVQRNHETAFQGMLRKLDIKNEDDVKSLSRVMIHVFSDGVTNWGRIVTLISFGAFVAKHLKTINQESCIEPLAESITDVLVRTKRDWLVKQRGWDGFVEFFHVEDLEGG", "experiment": "BAX-mediated liposomal release assay, suppression by MCL-1", "type": "biochemical", "method": "(§2) Liposomes were prepared and release assays performed as previously described^46,47. Liposomal composition reflects a mixture of the following molar percentages of lipids (Avanti Polar Lipids): phosphatidylcholine, 48%; phosphatidylethanolamine, 28%; phosphatidylinositol, 10%; dioleoyl phosphatidylserine, 10%; and tetraoleoyl cardiolipin, 4%. Aliquots of mixed lipids (1 mg total) are stored in glass at −20° C. under nitrogen, and before use, resuspended in liposome assay buffer (10 mM HEPES, 200 mM KCl, 1 mM MgCl2, pH 7) containing 12.5 mM of the fluorescent dye ANTS (8-aminonaphthalene-1,3,6-trisulfonic acid, disodium salt) and 45 mM of the quencher DPX (p-xylene-bis-pyridinium bromide. The resulting slurry is vortexed for 10 min and freeze-thawed five times in liquid nitrogen and a 40° C. water bath, respectively. The solution is then passed through an Avanti Mini-Extruder Set (#610000) equipped with a 100 nm filter, followed by passage through a Sepharose column (GE Healthcare) to remove residual ANTS/DPX."}, "[5]": {"target": "T1, MCL-1ΔNΔC", "experiment": "Competitive fluorescence polarization binding assay, MCL-1", "conditions": "competitive FP", "method": "Here, we deployed MCL-1 SAHBA as a high fidelity screening tool to determine if its potency and specificity-of-action could be harnessed for small molecule discovery. […] A compilation of 71,296 small molecules was screened for the capacity to displace FITC-MCL-1 SAHBA from recombinant MCL-1ΔNΔC (aa 172-327) (FIG. 4).\nFluorescence polarization assays (FPA) were performed as previously described^38,39. […] Fluorescence polarization was measured at equilibrium and IC50 values calculated by nonlinear regression analysis of competitive binding curves using Prism software (Graphpad)."}, "[6]": {"target": "BCL-XLΔC (Homo sapiens (Human), UniProt Q07817)", "sequence (Q07817 1-212)": "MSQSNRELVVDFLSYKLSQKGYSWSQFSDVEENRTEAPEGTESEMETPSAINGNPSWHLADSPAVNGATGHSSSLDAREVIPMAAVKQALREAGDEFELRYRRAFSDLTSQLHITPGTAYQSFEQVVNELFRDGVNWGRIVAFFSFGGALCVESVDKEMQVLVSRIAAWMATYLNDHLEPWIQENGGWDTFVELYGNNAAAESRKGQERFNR", "experiment": "BAX-mediated liposomal release assay, suppression by BCL-XL", "type": "biochemical", "method": "as §2"}, "[7]": {"tested_on": "BCL-XL-rescued p185+Arf−/−Mcl-1−/− CML cells", "experiment": "Caspase 3/7 activation (Caspase-Glo), BCL-XL-dependent leukemia cells", "type": "cell-based, murine", "conditions": "8 h", "protocol": "p185^+Arf^−/− and MCL-1 or BCL-XL-rescued p185^+Arf^−/−Mcl^−/− cells were maintained in RPMI 1640 (ATCC) supplemented with 10% (v/v) FBS, 100 U/mL penicillin, 100 μg/mL streptomycin, 0.1 mM MEM non-essential amino acids and 50 μM β-mercaptoethanol. […] Caspase 3/7 activation was assayed at 8 h by addition of Caspase-Glo 3/7 reagent according to manufacturer's protocol (Promega), and luminescence measured using a SpectraMax M5 microplate reader. Viability and caspase assays were performed in duplicate, repeated at least twice with independent cell cultures, and the data normalized to vehicle-treated control wells."}, "[8]": {"tested_on": "wild-type or Bax−/−Bak−/− MEFs", "experiment": "Cell viability (CellTiter-Glo), MEFs", "type": "cell-based, mouse", "conditions": "non-malignant fibroblasts, 24 h", "method": "as §1"}, "[9]": {"tested_on": "wild-type or Bax−/−Bak−/− MEFs", "experiment": "Caspase 3/7 activation (Caspase-Glo), MEFs", "type": "cell-based, mouse", "conditions": "8 h", "method": "as §1"}}, "data": [{"smiles": "CN(C)CC[C@H](CSc1ccccc1)Nc1ccc(S(=O)(=O)NC(=O)c2ccc(N3CCN(Cc4ccccc4-c4ccc(Cl)cc4)CC3)cc2)cc1[N+](=O)[O-]", "note": "[ABT-737, N-(4-(4-((4′-chloro(1,1′-biphenyl)-2-yl)methyl)piperazin-1-yl)benzoyl)-4-(((1R)-3-(dimethylamino)-1-((phenylsulfanyl)methyl)propyl)amino)-3-nitrobenzenesulfonamide, reference compound]", "values": [{"measurement": "IC50", "setting": "[1]", "result": 5.1, "unit": "µM"}, {"measurement": "IC50", "setting": "[2]", "result": 1.6, "unit": "µM"}, {"measurement": "effect on viability / cytotoxicity", "setting": "[3]", "result": "no effect"}, {"measurement": "blockade of MCL-1ΔNΔC suppression of tBID-induced BAX activation", "setting": "[4]", "result": "no effect"}, {"measurement": "MCL-1ΔNΔC binding activity", "setting": "[5]", "result": "no activity"}, {"measurement": "blockade of BCL-XLΔC suppression of tBID-induced BAX activation", "setting": "[6]", "result": "negates"}, {"measurement": "caspase 3/7 activation", "setting": "[7]", "result": "dose-responsive caspase 3/7 activation"}, {"measurement": "effect on viability / toxicity", "setting": "[8]", "result": "no significant effect"}, {"measurement": "caspase 3/7 activation", "setting": "[9]", "result": "no observed caspase 3/7 activation"}]}]}
